Data from patent US12485115B2, “Biased NMDA receptor modulators and uses thereof” (EDWARD VIA COLLEGE OF OSTEOPATHIC MEDICINE, priority 2018, dated 2025).
Like-named read-outs stand apart in the source and are kept apart here.

Legend:
Format in all cases: cell-based
GluN1/2B NMDA receptor = GluN1/2B NMDA receptor (Homo sapiens, UniProt Q05586+Q13224); experiment: Two-electrode voltage clamp (TEVC), Xenopus oocytes expressing recombinant GluN1/2B
Description: (§1) Two-electrode voltage clamp)TEVC) and patch clamp electrophysiology techniques were used to study CNS004 induced changes in NMDA receptor functions. Briefly, appropriate combinations of cRNA encoding different NMDA receptor subunits were injected into Xenopus oocytes and incubated at about 18° C. for about 2-4 days before TEVC assays. TEVC assays were performed with a −60 mV holding potential. […]

GluN1/2A NMDA receptor [1] = target: T1, GluN1/2A NMDA receptor (Homo sapiens, UniProt Q05586+Q12879); experiment: Patch clamp electrophysiology, HEK293T cells expressing recombinant GluN1/2A; conditions: 100 μM CNS004
T1 sequence (Q12879 23-1464, other chains not shown): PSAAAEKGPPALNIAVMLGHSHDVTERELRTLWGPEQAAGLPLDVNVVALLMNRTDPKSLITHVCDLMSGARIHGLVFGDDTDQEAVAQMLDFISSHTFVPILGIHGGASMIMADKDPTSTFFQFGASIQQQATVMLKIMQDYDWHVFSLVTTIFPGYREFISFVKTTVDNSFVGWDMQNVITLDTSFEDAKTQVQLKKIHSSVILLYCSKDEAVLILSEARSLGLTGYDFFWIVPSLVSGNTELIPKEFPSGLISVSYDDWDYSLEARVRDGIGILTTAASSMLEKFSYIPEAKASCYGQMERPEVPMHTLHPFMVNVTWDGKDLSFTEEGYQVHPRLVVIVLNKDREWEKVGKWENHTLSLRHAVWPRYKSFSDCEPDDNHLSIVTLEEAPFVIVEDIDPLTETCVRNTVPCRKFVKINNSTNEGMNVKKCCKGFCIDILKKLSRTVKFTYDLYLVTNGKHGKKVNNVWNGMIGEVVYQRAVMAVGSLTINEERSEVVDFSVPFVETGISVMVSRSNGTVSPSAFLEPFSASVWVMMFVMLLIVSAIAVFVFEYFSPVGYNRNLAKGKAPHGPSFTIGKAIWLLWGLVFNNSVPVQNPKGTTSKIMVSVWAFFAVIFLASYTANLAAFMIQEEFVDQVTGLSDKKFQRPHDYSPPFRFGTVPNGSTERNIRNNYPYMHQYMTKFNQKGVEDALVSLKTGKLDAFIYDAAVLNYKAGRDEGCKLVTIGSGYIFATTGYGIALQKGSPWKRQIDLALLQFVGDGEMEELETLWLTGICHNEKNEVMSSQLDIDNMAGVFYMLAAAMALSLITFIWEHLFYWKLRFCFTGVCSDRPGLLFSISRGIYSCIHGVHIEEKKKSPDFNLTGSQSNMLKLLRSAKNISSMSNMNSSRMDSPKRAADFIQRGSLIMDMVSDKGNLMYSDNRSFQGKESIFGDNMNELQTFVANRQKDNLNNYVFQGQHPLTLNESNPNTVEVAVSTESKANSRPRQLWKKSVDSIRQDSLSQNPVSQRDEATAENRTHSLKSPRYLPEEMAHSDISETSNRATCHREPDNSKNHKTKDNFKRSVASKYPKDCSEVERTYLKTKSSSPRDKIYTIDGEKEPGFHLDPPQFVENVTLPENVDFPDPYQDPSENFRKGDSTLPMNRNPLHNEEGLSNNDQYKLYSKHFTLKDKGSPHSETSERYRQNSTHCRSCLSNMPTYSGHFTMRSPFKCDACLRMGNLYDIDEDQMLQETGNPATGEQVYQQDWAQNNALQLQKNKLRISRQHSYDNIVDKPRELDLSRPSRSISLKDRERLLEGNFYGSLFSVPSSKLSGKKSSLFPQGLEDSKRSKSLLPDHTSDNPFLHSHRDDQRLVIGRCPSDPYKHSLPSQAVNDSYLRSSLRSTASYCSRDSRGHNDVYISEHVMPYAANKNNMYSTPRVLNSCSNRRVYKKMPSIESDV
Description: (§2) Patch clamp electrophysiology was also performed. Briefly, HEK293T cells were transfected with cDNA encoding NMDA receptor subunits 18-24 hours prior to patch clamp procedures. The effect of CNS004 on the agonist induced NMDA receptor function was evaluated at −80 mV.

GluN1/2A NMDA receptor [2] = target: T1, GluN1/2A NMDA receptor; experiment: Two-electrode voltage clamp (TEVC), Xenopus oocytes expressing recombinant GluN1/2A
Description: as §1

GluN1/2C NMDA receptor = GluN1/2C NMDA receptor (Homo sapiens, UniProt Q05586+Q14957); experiment: Two-electrode voltage clamp (TEVC), Xenopus oocytes expressing recombinant GluN1/2C; conditions: 10 μM glycine and 10 μM glutamate; EC50 ND, n=6
Description: as §1

[3] = target: T2, GluN1/2A/2B NMDA receptor (Homo sapiens, UniProt Q05586+Q12879+Q13224); experiment: Patch clamp electrophysiology, HEK293T cells expressing recombinant GluN1/2A/2B
T2 construct: expressed in transfected cells; host or cells: HEK293T
Description: as §2

[4] = target: GluN1/2A/2B triheteromeric NMDA receptor (Homo sapiens, UniProt Q05586+Q12879+Q13224); experiment: Two-electrode voltage clamp (TEVC), Xenopus oocytes expressing recombinant GluN1/2A/2B
Description: Briefly, appropriate combinations of cRNA encoding different NMDA receptor subunits were injected into Xenopus oocytes and incubated at about 18° C. for about 2-4 days before TEVC assays. TEVC assays were performed with a −60 mV holding potential.

GluN1/2D NMDA receptor = GluN1/2D NMDA receptor (Homo sapiens, UniProt O15399+Q05586); experiment: Two-electrode voltage clamp (TEVC), Xenopus oocytes expressing recombinant GluN1/2D; conditions: 10 μM glycine and 10 μM glutamate; EC50 ND, n=5
Description: as §1

GluN1/2B = GluN1/2B (Homo sapiens, UniProt Q05586+Q13224); experiment: NMDA receptor subunit selectivity of CNS004 analogs, average response, 1/2B; conditions: compound 100 μM
GluN1/2B, sequence (Q13224 27-1484, other chains not shown): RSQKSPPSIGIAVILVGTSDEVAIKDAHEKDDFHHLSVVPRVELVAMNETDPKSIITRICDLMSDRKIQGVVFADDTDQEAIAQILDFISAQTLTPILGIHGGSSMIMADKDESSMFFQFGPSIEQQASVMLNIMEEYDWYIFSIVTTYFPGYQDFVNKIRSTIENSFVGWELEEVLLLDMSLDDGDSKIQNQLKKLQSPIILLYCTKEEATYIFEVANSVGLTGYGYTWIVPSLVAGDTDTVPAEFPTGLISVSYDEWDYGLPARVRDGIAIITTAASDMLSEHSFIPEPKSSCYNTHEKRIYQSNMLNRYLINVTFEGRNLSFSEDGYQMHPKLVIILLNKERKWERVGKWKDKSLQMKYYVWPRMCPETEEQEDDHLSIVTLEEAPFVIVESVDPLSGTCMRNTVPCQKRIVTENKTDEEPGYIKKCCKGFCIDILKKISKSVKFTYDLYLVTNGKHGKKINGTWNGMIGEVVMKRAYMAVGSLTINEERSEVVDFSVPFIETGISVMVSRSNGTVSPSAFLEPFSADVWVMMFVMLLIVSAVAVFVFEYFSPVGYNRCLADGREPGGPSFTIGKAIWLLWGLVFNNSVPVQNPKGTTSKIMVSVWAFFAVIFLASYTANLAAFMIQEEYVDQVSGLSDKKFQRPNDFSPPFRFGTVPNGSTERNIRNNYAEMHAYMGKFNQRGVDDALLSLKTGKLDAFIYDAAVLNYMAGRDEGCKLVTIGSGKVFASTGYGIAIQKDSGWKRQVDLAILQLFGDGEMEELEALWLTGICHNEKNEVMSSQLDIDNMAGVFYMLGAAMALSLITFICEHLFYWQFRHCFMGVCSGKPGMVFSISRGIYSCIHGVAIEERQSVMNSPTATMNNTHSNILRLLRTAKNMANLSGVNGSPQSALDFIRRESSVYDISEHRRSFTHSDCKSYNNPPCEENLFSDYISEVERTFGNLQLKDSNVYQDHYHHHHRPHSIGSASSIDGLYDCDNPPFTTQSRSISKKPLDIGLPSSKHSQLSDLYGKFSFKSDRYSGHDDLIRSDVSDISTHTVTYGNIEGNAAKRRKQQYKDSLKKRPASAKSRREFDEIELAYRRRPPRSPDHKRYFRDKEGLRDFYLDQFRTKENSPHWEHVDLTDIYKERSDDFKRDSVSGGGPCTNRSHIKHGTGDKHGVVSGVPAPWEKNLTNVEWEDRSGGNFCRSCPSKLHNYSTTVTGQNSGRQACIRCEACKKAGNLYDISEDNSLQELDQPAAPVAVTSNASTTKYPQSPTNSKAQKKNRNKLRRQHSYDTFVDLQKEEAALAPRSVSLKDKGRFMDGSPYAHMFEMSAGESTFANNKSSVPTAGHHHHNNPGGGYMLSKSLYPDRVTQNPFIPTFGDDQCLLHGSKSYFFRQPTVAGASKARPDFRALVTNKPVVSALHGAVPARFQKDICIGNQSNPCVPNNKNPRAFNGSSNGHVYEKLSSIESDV

GluN1/2A = GluN1/2A (Homo sapiens, UniProt Q05586+Q12879); experiment: NMDA receptor subunit selectivity of CNS004 analogs, average response, 1/2A; conditions: compound 100 μM
GluN1/2A/2B (TH) = GluN1/2A/2B (TH) (Homo sapiens, UniProt Q05586+Q12879+Q13224); experiment: NMDA receptor subunit selectivity of CNS004 analogs, average response, TH; conditions: compound 100 μM

GluN1/2B NMDA receptor, sequence (Q13224 27-1484, other chains not shown): as above

In the case of `O=C(NC(=S)N1CCCCC1c1cccnc1)c1ccc(F)cc1` (stereo not drawn) [CNS004, 4-Fluoro-N-(2-(pyridin-3-yl)piperidine-1-carbonothioyl)benzamide], the “change of glycine potency on GluN1/2B” value (GluN1/2B NMDA receptor; 30 uM CNS4, glutamate 100 uM) is reported as “increase in glycine potency”, the “activity on GluN1/2B (averaged dose response curve)” value (GluN1/2B NMDA receptor; 100 μM glycine and 100 μM glutamate, EC50 not determined, n=4) is reported as “minimal activity” and the EC50 (GluN1/2B NMDA receptor; read-out: EC50 of potentiation of GluN1/2B (averaged and normalized DRC)) is reported as 8.67 ± 2.77 µM. The “effect of co-application with agonist on steady-state currents, GluN1/2A” value (GluN1/2A NMDA receptor [1]; 30 μM glycine and 100 μM glutamate) was “potentiates steady-state currents”, the “effect on 1/2A receptor currents at reduced glutamate” value (GluN1/2A NMDA receptor [1]; 100 μM glycine and 300 nM glutamate) was “largely potentiated” and the “effect on GluN1/2A (DRC)” value (GluN1/2A NMDA receptor [2]; 10 μM glycine and 10 μM glutamate, EC50 ND, n=6) was “minimally inhibited”. For the same compound, the “change of glycine potency on GluN1/2A” value (GluN1/2A NMDA receptor [2]; 30 uM CNS4, glutamate 100 uM) was “increase in glycine potency”, the “change of glutamate potency on GluN1/2A” value (GluN1/2A NMDA receptor [2]; 30 uM CNS4, glycine 100 uM) was “increase in glutamate potency” and the “activity on GluN1/2A (averaged dose response curve)” value (GluN1/2A NMDA receptor [2]; 100 μM glycine and 100 μM glutamate, EC50 not determined, n=3) was “minimal activity”. For the same compound, the “effect on GluN1/2C (DRC)” value (GluN1/2C NMDA receptor) was “no activity”, the “effect of co-application with agonist on steady-state currents, GluN1/2A/2B” value ([3]; 100 μM CNS004, 30 μM glycine and 100 μM glutamate) was “potentiates steady-state currents” and the “effect on 1/2A/2B currents at reduced glutamate” value ([3]; 100 μM CNS004, 100 μM glycine and 300 nM glutamate) was “inhibits”. For the same compound, the “effect of CNS004 pre-application on steady-state currents, GluN1/2A/2B” value ([3]; 100 μM CNS004 pre-application, 30 μM glycine and 100 μM glutamate) was “steep reduction in steady-state currents”, the “effect of CNS004 pre-application on desensitization, GluN1/2A/2B” value ([3]; 100 μM CNS004 pre-application, 30 μM glycine and 100 μM glutamate, GluN1/2A/2B only) was “promotes desensitization” and the EC50 ([4]; 10 μM glycine and 10 μM glutamate, n=6, read-out: EC50 of potentiation of GluN1/2A/2B (averaged and normalized DRC)) was 39 ± 22.4 µM. For the same compound, the “change of glycine potency on GluN1/2A/2B” value ([4]; 30 uM CNS4, glutamate 100 uM) was “increase in glycine potency”, the “change of glutamate potency on TH (GluN1/2A/2B)” value ([4]; 30 uM CNS4, glycine 100 uM) was “increase in glutamate potency” and the “effect on glycine and/or glutamate potency in GluN1/2A/2B (FIGS. 15A-15H)” value ([4]; 30 μM and 100 μM CNS004) was “increases Glycine and/or Glutamate Potency”. For the same compound, the “effect on agonist induced current in GluN1/2A/2B in three sequences of application” value ([4]; 100 μM CNS004, 100 μM glycine+100 μM glutamate, co-application, agonist pre-application, CNS004 pre-application) was “potentiation”, the EC50 ([4]; 100 μM glycine and 100 μM glutamate, n=5, read-out: EC50 of potentiation of GluN1/2A/2B (averaged dose response curve)) was 160 ± 15.4 µM and the “effect of pre-application of CNS004 alone on agonist induced current response” value ([4]; recombinant GluN1/2A, GluN1/2B and GluN1/2A/2B traces (FIG. 1E)) was “did not change the agonist induced current response”. For the same compound, the “receptor activation in the absence of agonist glutamate or glycine” value ([4]; recombinant GluN1/2A, GluN1/2B and GluN1/2A/2B traces (FIG. 1E), no agonist) was “did not activate the receptor” and the “effect on GluN1/2D (DRC)” value (GluN1/2D NMDA receptor) was “minimally inhibited”.
For `O=C(NC(=S)N1CCCCC1c1cccnc1)c1ccc(C(F)(F)F)cc1` (stereo not drawn) [Compound 2], the “Average Response (% inhibition), 1/2B” value (GluN1/2B) was −14.5863 % inhibition, the “Average Response (% inhibition), 1/2A” value (GluN1/2A) was −76.1696 % inhibition and the “Average Response (% inhibition), TH” value (GluN1/2A/2B (TH)) was −3.954 % inhibition.
For `Fc1ccc(C(=S)NC(=S)N2CCCCC2c2cccnc2)cc1` (stereo not drawn) [Compound 3], the “Average Response (% inhibition), 1/2B” value (GluN1/2B) was −45.1553 % inhibition, the “Average Response (% inhibition), 1/2A” value (GluN1/2A) was −52.246 % inhibition and the “Average Response (% inhibition), TH” value (GluN1/2A/2B (TH)) was −13.1155 % inhibition.
For `O=C(NC(=O)N1CCCCC1c1cccnc1)c1ccc(F)cc1` (stereo not drawn) [Compound 4], the “Average Response (% inhibition), 1/2B” value (GluN1/2B) was 5.755 % inhibition, the “Average Response (% inhibition), 1/2A” value (GluN1/2A) was 20.43 % inhibition and the “Average Response (% inhibition), TH” value (GluN1/2A/2B (TH)) was 4.722 % inhibition.
In the case of `O=C(NC(=S)N1CCCCC1c1cccnc1)c1ccc(C2CC2)cc1` (stereo not drawn) [Compound 5], the “Average Response (% inhibition), 1/2B” value (GluN1/2B) is reported as 9.468 % inhibition, the “Average Response (% inhibition), 1/2A” value (GluN1/2A) is reported as 7.117 % inhibition and the “Average Response (% inhibition), TH” value (GluN1/2A/2B (TH)) is reported as −2.571 % inhibition.
In the case of `O=C(NC(=S)N1CCCCC1c1cccnc1)c1ccc(CCCF)cc1` (stereo not drawn) [Compound 6], the “Average Response (% inhibition), 1/2B” value (GluN1/2B) is reported as 6.739 % inhibition, the “Average Response (% inhibition), 1/2A” value (GluN1/2A) is reported as −21.076 % inhibition and the “Average Response (% inhibition), TH” value (GluN1/2A/2B (TH)) is reported as 7.444 % inhibition.
With `O=C(NC(=S)N1CCCCC1c1cccnc1)c1ccc(P(=O)(O)O)cc1` (stereo not drawn) [Compound 7] the “Average Response (% inhibition), 1/2B” value (GluN1/2B) was 3.872 % inhibition, the “Average Response (% inhibition), 1/2A” value (GluN1/2A) was −1.858 % inhibition and the “Average Response (% inhibition), TH” value (GluN1/2A/2B (TH)) was 16.4617 % inhibition.
For `COCCCc1ccc(C(=O)NC(=S)N2CCCCC2c2cccnc2)cc1` (stereo not drawn) [Compound 8], the “Average Response (% inhibition), 1/2B” value (GluN1/2B) was 6.998 % inhibition, the “Average Response (% inhibition), 1/2A” value (GluN1/2A) was 0.4959 % inhibition and the “Average Response (% inhibition), TH” value (GluN1/2A/2B (TH)) was 8.377 % inhibition.
For `O=C(NC(=S)N1CCCCC1c1cccnc1)c1ccc(Cl)c(F)c1` (stereo not drawn) [Compound 9], the “Average Response (% inhibition), 1/2B” value (GluN1/2B) was −19.0618 % inhibition, the “Average Response (% inhibition), 1/2A” value (GluN1/2A) was −31.9381 % inhibition and the “Average Response (% inhibition), TH” value (GluN1/2A/2B (TH)) was −11.9509 % inhibition.
For `O=C(NC(=S)N1CCCCC1c1cccnc1)c1cccc(F)n1` (stereo not drawn) [Compound 40], the “Average Response (% inhibition), 1/2B” value (GluN1/2B) was −56.1908 % inhibition, the “Average Response (% inhibition), 1/2A” value (GluN1/2A) was −3.81 % inhibition and the “Average Response (% inhibition), TH” value (GluN1/2A/2B (TH)) was −3.494 % inhibition.
For `COc1cccc(C(=O)NC(=S)N2CCCCC2c2cccnc2)c1OC` (stereo not drawn) [Compound 41], the “Average Response (% inhibition), 1/2B” value (GluN1/2B) was 0.6785 % inhibition, the “Average Response (% inhibition), 1/2A” value (GluN1/2A) was 15.8054 % inhibition and the “Average Response (% inhibition), TH” value (GluN1/2A/2B (TH)) was 27.54 % inhibition.
With `CC(C(O)c1ccc(O)cc1)N1CCC(Cc2ccccc2)CC1` (stereo not drawn) [ifenprodil, reference compound] the “selectivity for GluN1/2A/2B receptor (FIG. 9G)” value ([4]; GluN1/2B selective antagonist) was “intermediate selectivity”.
